Data as given in article PMC11062899, “De novo development of small cyclic peptides that are orally bioavailable” (Nature Chemical Biology, 2023).
Where “and” joins values, the source holds several entries; their conditions need not be identical. Equal values may be shown once.

Columns and labels:
porcine pepsin = molecular target: T1, porcine pepsin (Sus scrofa, UniProt P00791); assay: Peptide stability in simulated gastric fluid (SGF); format: in vitro ADME
T1 construct: 0.32 g of porcine pepsin (Sigma-Aldrich, P7125) was dissolved under gentle agitation; purchased Sigma-Aldrich P7125
T1 sequence (P00791 60-385): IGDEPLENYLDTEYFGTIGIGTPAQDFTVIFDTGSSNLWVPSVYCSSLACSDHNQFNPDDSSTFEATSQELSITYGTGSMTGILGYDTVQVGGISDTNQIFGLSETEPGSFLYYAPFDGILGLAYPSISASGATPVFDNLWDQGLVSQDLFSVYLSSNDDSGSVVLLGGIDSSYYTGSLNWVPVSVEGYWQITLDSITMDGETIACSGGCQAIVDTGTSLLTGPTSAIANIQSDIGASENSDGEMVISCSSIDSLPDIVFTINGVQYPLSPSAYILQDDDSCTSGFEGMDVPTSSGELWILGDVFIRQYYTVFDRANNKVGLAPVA
Protocol: (§1) Simulated gastric and intestinal fluids were prepared according to the States Pharmacopeia specifications (Test Solutions, United States Pharmacopeia 35, NF 30, 2012). SGF: 0.2 g of sodium chloride was dissolved in 50 ml of water, and the pH was adjusted to 1.2 by addition of 0.7 ml of 10 M hydrochloric acid. Then, 0.32 g of porcine pepsin (Sigma-Aldrich, P7125) was dissolved under gentle agitation, and the volume was filled up to 100 ml with Milli-Q water. SIF: 0.68 g of monobasic potassium phosphate was dissolved in 25 ml of Milli-Q water, and the pH was adjusted to 6.8 by adding 7.7 ml of a 0.2 M sodium hydroxide solution. Next, 1 g of porcine pancreatin (Sigma-Aldrich, P3292) was added under gentle agitation, and the volume was adjusted to 100 ml with Milli-Q water to afford a fine suspension. To test the stability in simulated gastrointestinal fluids, 396 μl of SGF or SIF was pre-heated at 37 °C for 10 min, and 4 μl of a 1 mM peptide solution in DMSO was added. […] Supernatant was analyzed by LC–MS to measure the peptide concentrations at the different timepoints. Residual peptide was calculated by normalizing the concentrations measured at T1 to T0.

human α-thrombin = human α-thrombin (Homo sapiens, UniProt P00734); assay: Protease inhibition, Ki for human α-thrombin (fluorogenic substrate Z-Gly-Gly-Arg-AMC); format: biochemical; settings: replicates R1-R3
How it was run: (§2)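 Inhibition was measured as AMC fluorescence from 50 μM substrate, monitored for 30 min at 25 °C, relative to a peptide-free control. Human and rat enzymes were present at 2 nM and 3 nM final, respectively, in 50 mM Tris-HCl pH 7.4, 150 mM NaCl, 10 mM MgCl2, 1 mM CaCl2. Ki derives from fitted IC50 via Cheng–Prusoff.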

[1] = Passive artificial membrane permeability (PAMPA)
[2] = Metabolic stability in rat liver microsomes (RLMs); settings: rat, microsomes
[3] = Peptide stability in simulated intestinal fluid (SIF); format: in vitro ADME, porcine; settings: simulated gi fluid; 8 h, 37 °C, pH 6.8; read-out: Proteolytic stability: SIF (8 h) % remaining
Protocol: as §1

porcine pancreatin = assay: as above; format: in vitro ADME; settings: after 8 h vs 0 h (TIC); average of R1-R3
Protocol: as §1

rat α-thrombin = molecular target: T2, rat α-thrombin (Rattus norvegicus, UniProt P18292); assay: Protease inhibition, Ki for rat α-thrombin (fluorogenic substrate Z-Gly-Gly-Arg-AMC); format: biochemical; settings: replicates R1-R3
T2 construct: rat α-thrombin (Molecular Innovations) were used at final concentrations of 2 nM and 3 nM; purchased Molecular Innovations
How it was run: as §2

[4] = peptide 1.33E+02 uM, slope of proteolytic substrate cleavage over time

## O=C1CC2CCN(CC2)C(=O)[C@H](Cc2ccccc2)NC(=O)[C@@H](NC(=O)c2ccc(Cl)s2)CSCCS(=O)(=O)CCSCCN1 [compound 13]
Porcine pepsin; after 8 h vs 0 h (TIC), average of R1-R3
  SGF stability, Residual peptide Average: 103.72
Porcine pepsin; after 8 h vs 0 h (TIC), single replicates R1-R3
  SGF stability, Residual peptide: 109.74 and 107.42 and 94.00
Porcine pepsin; simulated gi fluid, 8 h, 37 °C, pH 1.2, read-out: Proteolytic stability: SGF (8 h) % remaining
  remaining at 8 h: 104 ± 8%
Human α-thrombin; peptide 1.02E-03 uM
  Human alpha thrombin inhibition, slope normalized to DMSO: 98.5 and 92.4 and 98.3
Human α-thrombin; peptide 1.04E+00 uM
  Human alpha thrombin inhibition, slope normalized to DMSO: 56.0 and 56.7 and 59.7
Human α-thrombin; peptide 1.27E-04 uM
  Human alpha thrombin inhibition, slope normalized to DMSO: 96.6 and 96.4 and 97.8
Human α-thrombin; peptide 1.30E-01 uM
  Human alpha thrombin inhibition, slope normalized to DMSO: 89.4 and 79.1 and 90.0
Human α-thrombin; [4]
  Human alpha thrombin inhibition, slope normalized to DMSO: 3.8 and 5.6 and 7.2
Human α-thrombin; peptide 1.63E-02 uM
  Human alpha thrombin inhibition, slope normalized to DMSO: 96.8 and 95.2 and 98.6
Human α-thrombin; peptide 1.67E+01 uM
  Human alpha thrombin inhibition, slope normalized to DMSO: 11.2 and 13.1 and 6.6
Human α-thrombin; peptide 2.03E-03 uM
  Human alpha thrombin inhibition, slope normalized to DMSO: 96.1 and 91.3 and 98.5
Human α-thrombin; peptide 2.08E+00 uM
  Human alpha thrombin inhibition, slope normalized to DMSO: 44.5 and 43.9 and 46.9
Human α-thrombin; peptide 2.54E-04 uM
  Human alpha thrombin inhibition, slope normalized to DMSO: 98.7 and 101.9 and 92.3
Human α-thrombin; peptide 2.60E-01 uM
  Human alpha thrombin inhibition, slope normalized to DMSO: 82.9 and 76.8 and 85.2
Human α-thrombin; peptide 3.18E-05 uM
  Human alpha thrombin inhibition, slope normalized to DMSO: 98.4 and 99.1 and 103.6
Human α-thrombin; peptide 3.26E-02 uM
  Human alpha thrombin inhibition, slope normalized to DMSO: 83.8 and 90.0 (2×)
Human α-thrombin; peptide 3.33E+01 uM
  Human alpha thrombin inhibition, slope normalized to DMSO: 7.3 and 17.9 and 6.7
Human α-thrombin; peptide 4.07E-03 uM
  Human alpha thrombin inhibition, slope normalized to DMSO: 97.5 and 98.3 and 97.0
Human α-thrombin; peptide 4.17E+00 uM
  Human alpha thrombin inhibition, slope normalized to DMSO: 31.6 and 18.4 and 32.8
Human α-thrombin; peptide 5.09E-04 uM
  Human alpha thrombin inhibition, slope normalized to DMSO: 94.9 and 94.8 and 96.2
Human α-thrombin; peptide 5.21E-01 uM
  Human alpha thrombin inhibition, slope normalized to DMSO: 73.3 and 69.5 and 73.8
Human α-thrombin; peptide 6.36E-05 uM
  Human alpha thrombin inhibition, slope normalized to DMSO: 99.0 and 95.7 and 105.1
Human α-thrombin; peptide 6.51E-02 uM
  Human alpha thrombin inhibition, slope normalized to DMSO: 92.9 and 89.5 and 93.7
Human α-thrombin; peptide 6.67E+01 uM
  Human alpha thrombin inhibition, slope normalized to DMSO: 5.0 (2×) and 5.6
Human α-thrombin; peptide 8.14E-03 uM
  Human alpha thrombin inhibition, slope normalized to DMSO: 98.2 and 94.5 and 89.6
Human α-thrombin; peptide 8.33E+00 uM
  Human alpha thrombin inhibition, slope normalized to DMSO: 20.4 and 21.3 and 21.0
[1]; 50 μM, 12–18 h, acceptor concentration relative to equilibrium
  PAMPA permeability: % permeability: 2.0 ± 1.7%
[1]; PAMPA, pH 7.4
  Papp at 50 μM: 0.107 ×10⁻⁶ cm/s
[1]; PAMPA, average of R1-R3
  Permeability% Average: 2.0%
[1]; PAMPA, replicate R1, TIC of top well sample relative to sample at theoretical equilibrium
  Permeability% R1: 3.95%
[1]; PAMPA, replicate R3, TIC of top well sample relative to sample at theoretical equilibrium
  Permeability% R3: 1.45%
[2]; CL (ul/min/mg protein) R1, RLM CL, replicate R1
  microsomal CLint: 187 µL/min/mg
[2]; CL (ul/min/mg protein) R2, RLM CL, replicate R2
  microsomal CLint: 117 µL/min/mg
[2]; CL (ul/min/mg protein) R3, RLM CL, replicate R3
  microsomal CLint: 148 µL/min/mg
[2]; Half Life (min) R1, RLM metabolic stability, replicate R1, 0-60 min
  half-life: 7.4 min
[2]; Half Life (min) R2, RLM metabolic stability, replicate R2, 0-60 min
  half-life: 11.9 min
[2]; Half Life (min) R3, RLM metabolic stability, replicate R3, 0-60 min
  half-life: 9.38 min
[2]; Metabolic stability: Half life T1/2 (min), RLMs, mean and SD, three measurements
  half-life: 9.5 ± 1.8 min
[2]; Metabolic stability: RLM CL (ul/min/mg), RLMs, mean and SD, three measurements
  microsomal CLint: 151 ± 29 µL/min/mg
[2]; Metabolic stability: RLM CL Average, summary table, average of R1-R3
  microsomal CLint: 151 µL/min/mg
[2]; Metabolic stability: RLM CL R1, summary table, rounded, replicate R1
  microsomal CLint: 187 µL/min/mg
[2]; Metabolic stability: RLM CL R2, summary table, rounded, replicate R2
  microsomal CLint: 117 µL/min/mg
[2]; Metabolic stability: RLM CL R3, summary table, rounded, replicate R3
  microsomal CLint: 148 µL/min/mg
[3]
  remaining at 8 h: 96 ± 11%
Porcine pancreatin
  SIF stability, Residual peptide Average: 95.61
Rat α-thrombin; [4]
  Rat alpha thrombin inhibition, slope normalized to DMSO: 2.5 and 3.0 and 16.1
Rat α-thrombin; peptide 1.67E+01 uM
  Rat alpha thrombin inhibition, slope normalized to DMSO: 7.6 and 7.2 and 19.3
Rat α-thrombin; peptide 2.08E+00 uM
  Rat alpha thrombin inhibition, slope normalized to DMSO: 36.1 and 33.7 and 41.7
Rat α-thrombin; peptide 2.54E-04 uM
  Slope normalized to DMSO (proteolytic substrate cleavage over time): 99.5 and 98.8
Rat α-thrombin; peptide 3.18E-05 uM
  Slope normalized to DMSO (proteolytic substrate cleavage over time): 98.9
Rat α-thrombin; peptide 3.33E+01 uM
  Rat alpha thrombin inhibition, slope normalized to DMSO: 4.5 and 3.9 and 18.0
Rat α-thrombin; peptide 4.17E+00 uM
  Rat alpha thrombin inhibition, slope normalized to DMSO: 21.1 and 20.6 and 33.2
Rat α-thrombin; peptide 6.36E-05 uM
  Slope normalized to DMSO (proteolytic substrate cleavage over time): 99.5
Rat α-thrombin; peptide 6.51E-02 uM
  Slope normalized to DMSO (proteolytic substrate cleavage over time): 99.3
Rat α-thrombin; peptide 6.67E+01 uM
  Rat alpha thrombin inhibition, slope normalized to DMSO: 2.7 and 2.5 and 17.0
Rat α-thrombin; peptide 8.14E-03 uM
  Slope normalized to DMSO (proteolytic substrate cleavage over time): 99.8 and 99.9
Rat α-thrombin; peptide 8.33E+00 uM
  Rat alpha thrombin inhibition, slope normalized to DMSO: 14.3 and 13.8 and 26.6
